{
  "source": "patent US9561220B2",
  "about": "“Group of alkaloids, the novel autophagic enhancers for treatment of cancers and neurodegenerative conditions thereof” (Macau University of Science and Technology, priority 2014, dated 2017)",
  "key": {"[1]": {"system": "panel of human cancer cells (HeLa, MCF-7, HepG2, Hep3B, H1299, A549, PC3)", "assay": "cells", "assay_type": "cell-based", "protocol": "The test compounds of liensinine, isoliensinine, dauricine, cepharanthine, hernandezine and thalidezine were dissolved in DMSO at a final concentration of 100 mmol/L and stored at −20° C. Cytotoxicity was assessed using the 3-(4,5-dimethylthiazol-2-yl)-2,5-diphenyltetrazolium bromide assay as described previously. 4000-8000 HeLa (human cervical cancer), MCF-7 (human breast cancer), HepG2 (human liver cancer), Hep3B (human liver cancer), H1299 (human lung cancer), A549 (human lung cancer), PC3 (human prostate cancer) and LO2 (human normal liver) cells were seeded on 96-well plates per well. After overnight pre-incubation, the cells were exposed to different concentrations of liensinine, isoliensinine, dauricine, cepharanthine, hernandezine and thalidezine (0.039-100 μmol/L) for 3 days. Specifically, the following concentrations are used for all of the above alkaloids: […], 0.039 μmol/L. Subsequently, 10 μL of MTT reagents was added to each well and incubated at 37° C. for 4 hours followed by the addition of 100 μL solubilization buffer (10% SDS in 0.01 mol/L HCl) and overnight incubation. Absorbance at 585 nm was determined from each well on the following day. The percentage of cell viability was calculated using the following formula: Cell viability (%)=Cells number treated/Cells number DMSO control×100. Data was obtained from three independent experiments."}, "LC3-II": {"system": "LC3-II", "assay": "Detection of autophagic marker protein LC3 conversion (Western blot)", "assay_type": "cell-based, human", "conditions": "HeLa cells, Western blot (FIG. 2b)", "protocol": "After treatments with […], isoliensinine, dauricine, cepharanthine, hernandezine and thalidezine, cells were harvested and lysed in RIPA buffer (Cell Signaling Technologies Inc., Beverly, Mass.). The cell lysates were then resolved by SDS-PAGE. After electrophoresis, the proteins from SDS-PAGE were transferred to nitrocellulose membrane which was then blocked with 5% non-fat dried milk for 60 minutes. The membrane was then incubated with LC3 primary antibodies (1:1000) in TBST overnight at 4° C. After that, the membrane was further incubated with HRP-conjugated secondary antibodies for 60 minutes. Finally, protein bands were visualized by using the ECL Western Blotting Detection Reagents (Invitrogen, Paisley, Scotland, UK)."}, "[2]": {"system": "Atg7 wild-type mouse embryonic fibroblasts", "assay": "GFP-LC3 puncta in Atg7 wild-type MEFs", "assay_type": "cell-based", "conditions": "20 μM liensinine or 10 μM others, 24 h (FIGS. 4a to 4c)", "protocol": "(§1) GFP-LC3 puncta formation was quantified as previously described. In brief, both Atg7 wild-type (Atg7-wt or Atg7+/+) and deficient (Atg7-/-) mouse embryonic fibroblasts (MEFs) were transfected with GFP-LC3 plasmid and then grown on coverslips in a 6-well plate. The cells were then treated with 20 μM of […], 10 μM of isoliensinine, 10 μM of dauricine, 10 μM of cepharanthine, hernandezine or 10 μM of thalidezine. for 24 h. The cells were then fixed in 4% paraformaldehyde for 20 minutes at room temperature and then rinsed with PBS. Slides were mounted with FluorSaveTM mounting media (Calbiochem, San Diego, Calif.) and examined by fluorescence microscopy. The number of GFP-positive cells with GFP-LC3 puncta formation was examined under the Nikon ECLIPSE 80i microscope. Representative images were captured with CCD digital camera Spot RT3TM (Diagnostic Instruments, Inc., Melville, N.Y.). To quantify for autophagy, the percentage of cells with punctate GFP-LC3 fluorescence was calculated by counting the number of the cells with punctate GFP-LC3 fluorescence in GFP-positive cells. A minimum of 150 cells from 3 randomly selected fields were scored."}, "[3]": {"system": "Atg7-knockout (Atg7-ko or Atg7−/−) mouse embryonic fibroblasts", "assay": "GFP-LC3 puncta in Atg7 deficient MEFs", "assay_type": "cell-based", "conditions": "20 μM liensinine or 10 μM others, 24 h (FIGS. 4a to 4c)", "protocol": "as §1"}, "AMPK": {"system": "AMPK", "assay": "Detection of mTOR signaling marker proteins: AMPK phosphorylation (Western blot)", "assay_type": "cell-based, human", "conditions": "HeLa cells, 20 μM liensinine or 10 μM others, compared to DMSO control (FIG. 5a)", "protocol": "(§2) HeLa cells treated with 20 μM of […], 10 μM of isoliensinine, 10 μM of dauricine, 10 μM of cepharanthine, 10 μM of hernandezine and 10 μM of thalidezine were harvested and lysed in RIPA buffer (Cell Signaling). The cell lysates were then resolved by SDS-PAGE. After electrophoresis, the proteins from SDS-PAGE were transferred to nitrocellulose membrane which was then blocked with 5% non-fat dried milk for 60 minutes. The membrane was then incubated with P-p70S6K, p70S6K, P-AMPK, AMPK and actin primary antibodies (1:1000) in TBST overnight at 4° C. respectively. After that, the membrane was further incubated with HRP-conjugated secondary antibodies for 60 minutes. Finally, protein bands were visualized by using the ECL Western Blotting Detection Reagents (Invitrogen)."}, "p70S6K": {"system": "p70S6K", "assay": "Detection of mTOR signaling marker proteins: p70S6K phosphorylation (Western blot)", "assay_type": "cell-based, human", "conditions": "HeLa cells, 20 μM liensinine or 10 μM others (FIG. 5a)", "protocol": "as §2"}, "[4]": {"system": "autophagy deficient cells (Atg7−/− or Atg7-ko) MEFs", "assay": "Annexin V / propidium iodide flow cytometry in Atg7 wild-type and deficient MEFs", "assay_type": "cell-based, mouse", "protocol": "Cell viability was measured using an annexin V staining kit (BD Biosciences, San Jose, Calif., USA). Briefly, Atg7 wild-type (Atg7+/+ or Atg7-wt) and Atg7 deficient (Atg7−/− or Atg7-ko) mouse embryonic fibroblasts (MEFs) were treated with the selected alkaloids for 24 h. Cells were then harvested and analysed by multiparametric flow cytometry using FITC-Annexin V and Propidium iodide staining (BD Biosciences, San Jose, Calif., USA) according to the manufacturer's instructions. Flow cytometry was then carried out using a FACSCalibur flow cytometer (BD Biosciences, San Jose, Calif., USA). Data acquisition and analysis was performed with CellQuest (BD Biosciences, San Jose, Calif., USA). Data were obtained from three independent experiments."}, "[5]": {"system": "EGFP-tagged mutant huntingtin (HDQ55, HDQ74)", "assay": "Removal of mutant huntingtin by immunoblotting against EGFP", "assay_type": "cell-based", "conditions": "PC 12 cells, 5-10 μM, 24 h, immunoblotting against EGFP antibody (FIG. 8b)", "protocol": "(§3) PC 12 cells were transfected transiently with EGFP-HDQ55/74 plasmids for 24 h using Lipofectamine Plus LTX reagent (Invitrogen) according to the manufacturer's protocol. The transfected cells were then treated with […], isoliensinine, dauricine, cepharanthine, hernandezine and thalidezine for 24 h. The removal of mutant huntingtin, ([…]74) was then quantitated by immunoblotting with antibody against EGFP or by immunocytochemistry under fluorescence microscopy."}, "[6]": {"system": "mutant huntingtin aggregate (HDQ55)", "assay": "Mutant huntingtin aggregate by fluorescence imaging", "assay_type": "cell-based", "conditions": "PC 12 cells, fluorescence imaging (FIG. 8c)", "protocol": "as §3"}, "[7]": {"conditions": "Homo sapiens, 72 h, read-out: mean IC50 value (cell cytotoxicity)"}, "[8]": {"conditions": "MEFs, 24 h, annexin V/PI flow cytometry (FIGS. 6a to 6c)"}},
  "note": "Where two headings read alike, the source gives them in different places.",
  "data": [
    {"compound": "COc1cc2c(cc1OC)[C@@H](Cc1ccc(Oc3cc(C[C@@H]4c5cc(OC)c(OC)cc5CCN4C)ccc3O)cc1)N(C)CC2", "note": "[dauricine]", "values": [
      {"measurement": "IC50", "setting": "[1]; [7]", "result": "4.52 to 61.8", "unit": "µM"},
      {"measurement": "conversion of the autophagic marker LC3-II", "setting": "LC3-II", "result": "induced"},
      {"measurement": "GFP-LC3 puncta formation in wild type Atg7 cells", "setting": "[2]", "result": "induce"},
      {"measurement": "GFP-LC3 puncta formation in Atg7-knockout cells", "setting": "[3]", "result": "not"},
      {"measurement": "phosphorylation of AMPK", "setting": "AMPK", "result": "activate"},
      {"measurement": "downstream p70S6K phosphorylation", "setting": "p70S6K", "result": "concomitant reduction"},
      {"measurement": "cytotoxic effect to autophagy deficient cells (Atg7−/−) versus Atg7 wild-type", "setting": "[4]; [8]", "result": "less cytotoxicity"},
      {"measurement": "clearance of overexpressed EGFP-tagged mutant huntingtin (HDQ55, HDQ74)", "setting": "[5]", "result": "enhanced"},
      {"measurement": "formed mutant huntingtin aggregate (HDQ55)", "setting": "[6]", "result": "significantly reduced"}
    ]},
    {"compound": "COc1ccc2cc1Oc1ccc(cc1)C[C@H]1c3cc(c(OC)cc3CCN1C)Oc1c(OC)c(OC)c(OC)c3c1[C@H](C2)N(C)CC3", "note": "[hernandezine]", "values": [
      {"measurement": "IC50", "setting": "[1]; [7]", "result": "4.52 to 61.8", "unit": "µM"},
      {"measurement": "conversion of the autophagic marker LC3-II", "setting": "LC3-II", "result": "induced"},
      {"measurement": "GFP-LC3 puncta formation in wild type Atg7 cells", "setting": "[2]", "result": "induce"},
      {"measurement": "GFP-LC3 puncta formation in Atg7-knockout cells", "setting": "[3]", "result": "not"},
      {"measurement": "phosphorylation of AMPK", "setting": "AMPK", "result": "activate"},
      {"measurement": "downstream p70S6K phosphorylation", "setting": "p70S6K", "result": "concomitant reduction"},
      {"measurement": "clearance of overexpressed EGFP-tagged mutant huntingtin (HDQ55, HDQ74)", "setting": "[5]", "result": "enhanced"},
      {"measurement": "formed mutant huntingtin aggregate (HDQ55)", "setting": "[6]", "result": "significantly reduced"}
    ]},
    {"compound": "COc1ccc(C[C@@H]2c3cc(Oc4cc(C[C@@H]5c6cc(O)c(OC)cc6CCN5C)ccc4O)c(OC)cc3CCN2C)cc1", "note": "[isoliensinine]", "values": [
      {"measurement": "IC50", "setting": "[1]; [7]", "result": "4.52 to 61.8", "unit": "µM"},
      {"measurement": "conversion of the autophagic marker LC3-II", "setting": "LC3-II", "result": "induced"},
      {"measurement": "GFP-LC3 puncta formation in wild type Atg7 cells", "setting": "[2]", "result": "induce"},
      {"measurement": "GFP-LC3 puncta formation in Atg7-knockout cells", "setting": "[3]", "result": "not"},
      {"measurement": "phosphorylation of AMPK", "setting": "AMPK", "result": "activate"},
      {"measurement": "downstream p70S6K phosphorylation", "setting": "p70S6K", "result": "concomitant reduction"},
      {"measurement": "cytotoxic effect to autophagy deficient cells (Atg7−/−) versus Atg7 wild-type", "setting": "[4]; [8]", "result": "less cytotoxicity"},
      {"measurement": "clearance of overexpressed EGFP-tagged mutant huntingtin (HDQ55, HDQ74)", "setting": "[5]", "result": "enhanced"},
      {"measurement": "formed mutant huntingtin aggregate (HDQ55)", "setting": "[6]", "result": "significantly reduced"}
    ]},
    {"compound": "COc1cc2c(cc1OC)[C@@H](Cc1ccc(O)c(Oc3cc4c(cc3OC)CCN(C)[C@@H]4Cc3ccc(O)cc3)c1)N(C)CC2", "note": "[liensinine]", "values": [
      {"measurement": "IC50", "setting": "[1]", "result": "4.52 to 61.8", "unit": "µM"},
      {"measurement": "conversion of the autophagic marker LC3-II", "setting": "LC3-II", "result": "induced"},
      {"measurement": "GFP-LC3 puncta formation in wild type Atg7 cells", "setting": "[2]", "result": "induce"},
      {"measurement": "GFP-LC3 puncta formation in Atg7-knockout cells", "setting": "[3]", "result": "not"},
      {"measurement": "phosphorylation of AMPK", "setting": "AMPK", "result": "activate"},
      {"measurement": "downstream p70S6K phosphorylation", "setting": "p70S6K", "result": "concomitant reduction"},
      {"measurement": "cytotoxic effect to autophagy deficient cells (Atg7−/−) versus Atg7 wild-type", "setting": "[4]; [8]", "result": "less cytotoxicity"},
      {"measurement": "clearance of overexpressed EGFP-tagged mutant huntingtin (HDQ55, HDQ74)", "setting": "[5]", "result": "enhanced"},
      {"measurement": "formed mutant huntingtin aggregate (HDQ55)", "setting": "[6]", "result": "significantly reduced"}
    ]},
    {"compound": "thalidezine", "values": [
      {"measurement": "IC50", "setting": "[1]", "result": "4.52 to 61.8", "unit": "µM"},
      {"measurement": "conversion of the autophagic marker LC3-II", "setting": "LC3-II", "result": "induced"},
      {"measurement": "GFP-LC3 puncta formation in wild type Atg7 cells", "setting": "[2]", "result": "induce"},
      {"measurement": "GFP-LC3 puncta formation in Atg7-knockout cells", "setting": "[3]", "result": "not"},
      {"measurement": "phosphorylation of AMPK", "setting": "AMPK", "result": "activate"},
      {"measurement": "downstream p70S6K phosphorylation", "setting": "p70S6K", "result": "concomitant reduction"},
      {"measurement": "cytotoxic effect to autophagy deficient cells (Atg7−/−) versus Atg7 wild-type", "setting": "[4]", "result": "less cytotoxicity"},
      {"measurement": "clearance of overexpressed EGFP-tagged mutant huntingtin (HDQ55, HDQ74)", "setting": "[5]", "result": "enhanced"},
      {"measurement": "formed mutant huntingtin aggregate (HDQ55)", "setting": "[6]", "result": "significantly reduced"}
    ]}
  ]
}
